In ChEMBL document CHEMBL2157964, “Effect of alkyl chain length on sphingosine kinase 2 selectivity” (Bioorg Med Chem Lett, 2012):

Experiments:
[1] = biological target: T1, Sphingosine kinase 1 (Homo sapiens, UniProt Q9NYA1); assay: Inhibition of recombinant SphK1 expressed in baculovirus infected Sf9 cells using D-erythro-sphingosine as substrate and [32gammaP]ATP assessed as residual activity at 10 uM by scintillation counting
[2] = biological target: T2, Sphingosine kinase 2 (Homo sapiens) (UniProt Q9NRA0); assay: Inhibition of recombinant SphK2 expressed in baculovirus infected Sf9 cells using D-erythro-sphingosine as substrate and [32gammaP]ATP assessed as residual activity at 10 uM by scintillation counting
T2 sequence (whole entry): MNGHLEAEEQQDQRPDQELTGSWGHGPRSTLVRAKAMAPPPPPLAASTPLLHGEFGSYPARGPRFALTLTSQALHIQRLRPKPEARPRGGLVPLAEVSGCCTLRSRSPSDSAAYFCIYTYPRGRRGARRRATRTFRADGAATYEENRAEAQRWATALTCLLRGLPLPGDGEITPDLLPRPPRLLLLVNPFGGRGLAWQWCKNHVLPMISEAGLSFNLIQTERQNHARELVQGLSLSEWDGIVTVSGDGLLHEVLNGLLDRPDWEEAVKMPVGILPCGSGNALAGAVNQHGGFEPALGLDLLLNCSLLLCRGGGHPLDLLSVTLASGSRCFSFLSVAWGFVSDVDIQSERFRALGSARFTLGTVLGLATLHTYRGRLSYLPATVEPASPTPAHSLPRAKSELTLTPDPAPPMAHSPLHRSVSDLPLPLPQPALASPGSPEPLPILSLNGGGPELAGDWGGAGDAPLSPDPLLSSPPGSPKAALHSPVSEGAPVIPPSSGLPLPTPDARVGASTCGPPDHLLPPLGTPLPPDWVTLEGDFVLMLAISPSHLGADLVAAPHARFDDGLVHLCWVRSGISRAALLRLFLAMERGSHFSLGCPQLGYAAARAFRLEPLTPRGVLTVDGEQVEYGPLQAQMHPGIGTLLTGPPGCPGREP

[3] = biological target: T1, Sphingosine kinase 1; assay: Inhibition of recombinant SphK1 expressed in baculovirus infected Sf9 cells using D-erythro-sphingosine as substrate and [32gammaP]ATP by scintillation counting
[4] = biological target: T3, Sphingosine kinase 2 (Homo sapiens, UniProt Q9NRA0); assay: Inhibition of recombinant SphK2 expressed in baculovirus infected Sf9 cells using D-erythro-sphingosine as substrate and [32gammaP]ATP by scintillation counting
T3 sequence (Q9NRA0 whole entry): T2 sequence (whole entry)

[5] = Selectivity ratio of Ki for recombinant SphK1 to Ki for recombinant SphK2
[6] = biological target: T3, Sphingosine kinase 2; assay: Inhibition of SphK2 using sphingosine as substrate and [32gammaP]ATP after 15 to 20 mins by Cerenkov counting analysis
[7] = biological target: T3, Sphingosine kinase 2; assay: Inhibition of human recombinant SphK2 using NBD-sphingosine as substrate after 2 hrs by HPLC analysis

T1 sequence (Q9NYA1 whole entry): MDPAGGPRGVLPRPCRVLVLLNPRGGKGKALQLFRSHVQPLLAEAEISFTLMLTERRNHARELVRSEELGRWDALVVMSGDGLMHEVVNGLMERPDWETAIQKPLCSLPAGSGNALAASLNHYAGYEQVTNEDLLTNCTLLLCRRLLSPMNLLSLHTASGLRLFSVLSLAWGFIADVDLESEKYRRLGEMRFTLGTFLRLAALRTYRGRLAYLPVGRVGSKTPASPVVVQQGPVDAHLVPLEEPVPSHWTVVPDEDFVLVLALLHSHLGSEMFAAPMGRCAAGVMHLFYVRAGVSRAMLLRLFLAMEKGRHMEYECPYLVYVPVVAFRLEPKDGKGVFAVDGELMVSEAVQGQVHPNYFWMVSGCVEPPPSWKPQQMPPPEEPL

Row | SMILES | Activity [1] [%] | Activity [2] [%] | Ki [3] [µM] | Ki [4] [µM] | Ratio Ki [5] | Ki [6] [µM] | Ki [7] [µM]
1 | CCCCCCCCCCCCCCCCc1ccc([C@H]2CC[C@H]([N+](C)(C)CCC)CC2)cc1 | 94 | 70 | 27 | 29 | – | – | –
2 | CCCCCCCCCCCC(=O)c1ccc([C@H]2CC[C@H]([N+](C)(C)CCC)CC2)cc1 | 88 | 41 | – | – | – | – | –
3 | CCCCCCCCC#Cc1ccc([C@H]2CC[C@H]([N+](C)(C)CCC)CC2)cc1 | 61 | 78 | – | – | – | – | –
4 | CCCCCCCCCCCCCCc1ccc([C@H]2CC[C@H]([N+](C)(C)CCC)CC2)cc1 | 76 | 38 | 36 | 7 | 3 | – | –
5 | CCCCCCCCCCCCc1ccc([C@H]2CC[C@H]([N+](C)(C)CCC)CC2)cc1 | 63 | 26 | 13 | 8 | – | – | –
6 | CCCCCCc1ccc([C@H]2CC[C@H]([N+](C)(C)CCC)CC2)cc1 | 98 | 98 | 35 | 43 | – | – | –
7 | CCCCCCCCCC(=O)c1ccc([C@H]2CC[C@H]([N+](C)(C)CCC)CC2)cc1 | 93 | 75 | – | – | – | – | –
8 | CCCCCC(=O)c1ccc([C@H]2CC[C@H]([N+](C)(C)CCC)CC2)cc1 | 89 | 71 | – | – | – | – | –
9 | CCCCCCCCc1ccc([C@H]2CC[C@H]([N+](C)(C)CCC)CC2)cc1 | 100 | 64 | 22 | 21 | – | – | –
10 | CCCCCCCCCCCCCC(=O)c1ccc([C@H]2CC[C@H]([N+](C)(C)CCC)CC2)cc1 | 73 | 50 | – | – | – | – | –
11 | CCCCCCCCCCC(=O)c1ccc([C@H]2CC[C@H]([N+](C)(C)CCC)CC2)cc1 | 79 | 40 | – | – | – | – | –
12 | CCCCCCCOc1ccc([C@H]2CC[C@H]([N+](C)(C)CCC)CC2)cc1 | 100 | 70 | – | – | – | – | –
13 | CCCCCCCCCCCCCCCC(=O)c1ccc([C@H]2CC[C@H]([N+](C)(C)CCC)CC2)cc1 | 77 | 58 | – | – | – | – | –
14 | CCCCCCCCCCCc1ccc([C@H]2CC[C@H]([N+](C)(C)CCC)CC2)cc1 | 44 | 50 | 15 | 11 | – | – | –
15 | CCCCCCCCCC#Cc1ccc([C@H]2CC[C@H]([N+](C)(C)CCC)CC2)cc1 | 62 | 28 | – | – | – | – | –
16 | CCCCCCCCc1ccc(CC[C@@](N)(CO)COC)cc1 | – | – | – | – | – | 16.5 | –
17 | CCCCCCCCCCc1ccc([C@H]2CC[C@H]([N+](C)(C)CCC)CC2)cc1 | 67 | 26 | 35 | 43 | – | – | –
18 | O=C(NCc1ccncc1)C12CC3CC(C1)CC(c1ccc(Cl)cc1)(C3)C2 [ABC-294640] | – | – | – | – | – | – | 9.8
19 | CCCCCCCC#Cc1ccc([C@H]2CC[C@H]([N+](C)(C)CCC)CC2)cc1 | 87 | 100 | – | – | – | – | –
